Reference: paper PMC9884089 (Journal of Medicinal Chemistry, 2023)
pIC50: −log10 of the molar value. Read-outs that look alike come from different tables or passages of the source.

What was measured:
[1] = Metabolic stability in HLM; details: 37 °C, 1 h, NADPH regenerating system
Procedure: Each compound in DMSO solution was incubated at 37 °C for 1 h in phosphate buffer (25 mM pH 7.4), human liver microsomal protein (0.2 mg/mL), and in the presence of an NADPH regenerating system (NADPH 0.2 mM, […] 1 mM, D-glucose-6-phosphate 4 mM, 4 unit/mL glucose-6-phosphate dehydrogenase) in 48 mM MgCl2 at a final volume of 500 μL. The reaction was stopped by cooling in ice and quenched by adding 1.0 mL of acetonitrile. The reaction mixtures were then centrifuged (4000 rpm for 10 min), and the supernatant was taken, dried under nitrogen flow, and suspended in 100 μL of methanol. The parent drug and metabolites were subsequently determined by UV/LC–MS. The percentage of not metabolized compound was calculated by comparison with reference solutions. For each compound, the determination was performed in three independent experiments.

[2] = target: T1, PARP16 (Homo sapiens, UniProt Q8N5Y8); test: Proximity-enhanced mono-ART activity assay, PARP16; format: biochemical; details: > less than 50% inhibition
T1 construct: dockerin domain of Hungateiclostridium thermocellum Cel48s (C); made in house; host or cells: Escherichia coli
T1 sequence (Q8N5Y8 1-322): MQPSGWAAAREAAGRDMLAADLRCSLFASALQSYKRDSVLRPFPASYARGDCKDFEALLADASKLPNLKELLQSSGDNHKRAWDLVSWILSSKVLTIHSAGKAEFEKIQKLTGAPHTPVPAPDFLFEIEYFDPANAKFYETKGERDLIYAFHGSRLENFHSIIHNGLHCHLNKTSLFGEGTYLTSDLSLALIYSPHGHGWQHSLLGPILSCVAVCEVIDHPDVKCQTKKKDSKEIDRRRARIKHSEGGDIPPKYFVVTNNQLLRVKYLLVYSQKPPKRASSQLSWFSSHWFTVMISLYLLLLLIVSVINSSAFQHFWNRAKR
Procedure: We therefore had to improve the assay method and developed a homogeneous proximity enhanced assay for mono-ARTs.[47]
The proteins used in Tables 1–3 were produced as described earlier. Dockerin constructs to allow enhanced activity assays for mono-ARTs (Table 4) were produced in Escherichia coli with an N-terminal maltose binding protein (MBP) and a C-terminal dockerin domain from Hungateiclostridium thermocellum Cel48s as described recently.[47]
Inhibition experiments were performed using a homogenous assay measuring NAD+ consumption.[80]−[82] Reactions were carried out in quadruplicate, and IC50 curves were fitted using sigmoidal dose response curve (four variables) in GraphPad Prism version 8.02. […] Assay conditions for PARP2, TNKS2, PARP10, and PARP15 (Tables 1–3) were recently reported.[44] The conditions for the proximity-enhanced mono-ART assays (Table 4) were also reported recently.[47] PARP6 (400 nM) inhibition was measured using the standard buffer (50 mM sodium phosphate pH 7.0) for the enhanced activity assay using 500 nM NAD^+ and 18 h incubation in r.t..

[3] = Thermodynamic water solubility; format: physicochemical; details: distilled water, r.t.
Procedure: Each solid compound (1 mg) was added to 1 mL of distilled water. Each sample was mixed at r.t. in a shaker water bath 24 h. The resulting suspension was filtered through a 0.45 μm nylon filter (Acrodisc), and the solubilized compound was quantified in triplicate using UV/LC–MS method reported above by comparison with the appropriate calibration curve that was obtained from samples of the compound dissolved in methanol at different concentrations.[94]

[4] = Stability in PBS pH 7.4; format: physicochemical; details: 500 μM
Procedure: For the stability measurements in polar solvents, each compound was dissolved at room temperature in MeOH or PBS (0.025 M, pH 7.4) up to a final concentration of 500 μM.

[5] = target: T2, TNKS1 (Homo sapiens, UniProt O95271); test: PARP profiling activity assay, TNKS1; format: biochemical
T2 sequence (O95271 1-1327): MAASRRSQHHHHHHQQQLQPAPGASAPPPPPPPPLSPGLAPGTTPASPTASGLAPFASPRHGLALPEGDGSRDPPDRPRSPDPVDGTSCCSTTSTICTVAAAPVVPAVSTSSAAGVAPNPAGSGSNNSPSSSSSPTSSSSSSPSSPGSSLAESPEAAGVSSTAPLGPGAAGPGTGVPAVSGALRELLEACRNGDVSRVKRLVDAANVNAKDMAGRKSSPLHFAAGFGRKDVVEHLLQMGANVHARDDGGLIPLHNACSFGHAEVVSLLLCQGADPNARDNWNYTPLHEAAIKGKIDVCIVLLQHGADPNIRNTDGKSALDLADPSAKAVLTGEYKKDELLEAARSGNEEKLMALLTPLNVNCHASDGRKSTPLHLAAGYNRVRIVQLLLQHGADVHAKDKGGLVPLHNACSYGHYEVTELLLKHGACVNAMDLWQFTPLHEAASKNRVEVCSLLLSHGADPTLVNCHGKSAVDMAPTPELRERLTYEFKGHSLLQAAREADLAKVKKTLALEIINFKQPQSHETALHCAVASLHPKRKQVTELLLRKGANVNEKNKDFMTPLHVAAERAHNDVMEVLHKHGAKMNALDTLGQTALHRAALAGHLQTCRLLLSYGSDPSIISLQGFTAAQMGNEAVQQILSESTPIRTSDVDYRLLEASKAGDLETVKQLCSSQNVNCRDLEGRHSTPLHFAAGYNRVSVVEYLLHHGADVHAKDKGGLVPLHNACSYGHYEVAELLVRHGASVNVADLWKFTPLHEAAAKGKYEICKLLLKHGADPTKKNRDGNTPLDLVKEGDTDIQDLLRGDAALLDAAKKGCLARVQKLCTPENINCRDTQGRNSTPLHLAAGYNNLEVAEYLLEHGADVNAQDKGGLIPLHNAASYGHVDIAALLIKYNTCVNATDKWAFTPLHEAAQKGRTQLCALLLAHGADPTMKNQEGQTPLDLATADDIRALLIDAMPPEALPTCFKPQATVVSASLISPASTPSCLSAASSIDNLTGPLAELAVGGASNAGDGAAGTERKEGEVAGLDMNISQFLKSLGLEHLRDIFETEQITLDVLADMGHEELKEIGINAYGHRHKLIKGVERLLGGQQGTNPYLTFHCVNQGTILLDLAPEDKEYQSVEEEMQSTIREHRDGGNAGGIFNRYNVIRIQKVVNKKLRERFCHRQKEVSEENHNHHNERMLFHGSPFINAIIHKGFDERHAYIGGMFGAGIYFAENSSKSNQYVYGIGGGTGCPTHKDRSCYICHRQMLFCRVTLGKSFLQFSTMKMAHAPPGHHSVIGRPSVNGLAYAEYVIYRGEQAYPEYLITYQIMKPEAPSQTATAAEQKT

[6] = read-out: water solubility (log s) (converted)

Which “metabolic stablity % (unchanged compound)” value [1] does the source give for `Cc1ccc2c(c1)sc1nnc(N)n12` [Compound 21, 7-Methyl[1,2,4]triazolo[3,4-b][1,3]benzothiazol-3-amine] here?
The value was 99.14%.

And the pIC50 [2]?
Its pIC50 is 5.28.

And the solubility at 24 h ([3]; read-out: water solubility)?
Its solubility at 24 h is 37.6 µg/mL.

What about the solubility at 24 h [3, 6] of the same compound?
The solubility at 24 h was 184 µM.

And the “stab in PBS pH 7.4” value [4]?
The value was greater than 24 h.

What about the pIC50 [5] of the same compound?
Its pIC50 is 5.68.

With `COc1ccc(OC)c2c1sc1nnc(N)n12` [Compound 27, 5,8-Dimethoxy[1,2,4]triazolo[3,4-b][1,3]benzothiazol-3-amine] as the compound, how does the “metabolic stablity % (unchanged compound)” value [1] read?
Its value is 99.11%.

What about the pIC50 [2] of the same compound?
Its pIC50 is 5.47.

What about the solubility at 24 h ([3]; read-out: water solubility) of the same compound?
Its solubility at 24 h is 12.6 µg/mL.

And the solubility at 24 h [3, 6]?
The solubility at 24 h was 50.4 µM.

What about the “stab in PBS pH 7.4” value [4] of the same compound?
Its value is greater than 24 h.

What about the pIC50 [5] of the same compound?
The pIC50 was 5.27.
